Data reported in patent US8785468B2, “Phenylalanine amide derivatives useful for treating insulin-related diseases and conditions” (Amgen Inc., priority 2009, dated 2014).
Where a name gives a salt, the structure may show the parent alone.

Target: T1, human receptor found in pancreatic islet cells (Homo sapiens, UniProt Q7Z601)
T1 sequence (Q7Z601 1-462): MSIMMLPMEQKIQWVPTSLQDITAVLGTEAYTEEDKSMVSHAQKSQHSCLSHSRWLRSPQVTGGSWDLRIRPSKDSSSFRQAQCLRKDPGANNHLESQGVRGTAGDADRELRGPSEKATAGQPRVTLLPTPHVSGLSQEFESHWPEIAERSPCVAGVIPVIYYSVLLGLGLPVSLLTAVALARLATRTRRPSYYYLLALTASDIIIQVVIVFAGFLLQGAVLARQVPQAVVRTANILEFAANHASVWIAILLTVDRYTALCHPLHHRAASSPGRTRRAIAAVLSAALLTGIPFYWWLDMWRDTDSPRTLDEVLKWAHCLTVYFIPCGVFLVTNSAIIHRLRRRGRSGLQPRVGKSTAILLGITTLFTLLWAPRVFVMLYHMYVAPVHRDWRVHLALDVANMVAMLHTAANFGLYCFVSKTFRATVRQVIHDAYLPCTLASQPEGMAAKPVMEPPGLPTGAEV
Assay: Activation of intracellular IP3 signaling in transfected cells (Activation Assay)
Assay type: cell-based
Settings: calculated from IP3 concentration measurements in cells transfected with the human receptor
Experimental: Table 12 provides exemplary compounds that were prepared and assessed, following protocols known to those of skilled in the art, for activation of intracellular inositol trisphosphate (IP3) signaling pathways that lead to elevation of intracellular calcium concentration. EC50 values provided in Table 12 were calculated from IP3 concentration measurements in cells transfected with a human receptor found in pancreatic islet cells, inter alia.

O=C(O)c1cc(NC(=O)[C@H](Cc2ccccc2)NCc2cn[nH]c2)cc(-c2ccncc2)c1 [Example 45.4, (S)-3-(2-((1H-Pyrazol-4-yl)methylamino)-3-phenylpropanamido)-5-(pyridin-4-yl)benzoic acid]
EC50: 1 to 10 µM

CNc1cc(-c2cc(NC(=O)[C@H](Cc3ccc(F)cc3)NCc3ccn(C)n3)n(C)n2)ccn1 [Example 23.4, (2S)-3-(4-Fluorophenyl)-2-((1-methyl-1H-pyrazol-3-yl)methylamino)-N-(1-methyl-3-(2-(methylamino)pyridin-4-yl)-1H-pyrazol-5-yl)propanamide]
EC50: 0.05 to 0.1 µM

COc1ncc(-c2ccnc(C)c2)cc1NC(=O)[C@H](Cc1ccccc1)NCc1cn(C)cn1 [Example 41.4, (2S)—N-(2-Methoxy-5-(2-methylpyridin-4-yl)pyridin-3-yl)-2-((1-methyl-1H-imidazol-4-yl)methylamino)-3-phenylpropanamide]
EC50: 0.1 to 1 µM

COC(=O)c1cc(-c2ccncc2)cc2c1CCN2C(=O)[C@H](Cc1ccccc1)NCc1cscn1 [Example 54.3, (S)-Methyl 1-(3-phenyl-2-(thiazol-4-ylmethylamino)propanoyl)-6-(pyridin-4-yl)indoline-4-carboxylate]
EC50: 0.05 to 0.1 µM

CC(N[C@@H](Cc1ccccc1)C(=O)Nc1cccc(-c2ccncc2)c1)c1cnccn1 (stereo partly drawn) [Example 34.10, (2S)-3-Phenyl-2-(1-(pyrazin-2-yl)ethylamino)-N-(3-(pyridin-4-yl)phenyl)propanamide]
EC50: 0.1 to 1 µM

CNc1cc(-c2cc(NC(=O)[C@H](Cc3ccc(F)cc3)NCc3c[nH]nn3)[nH]n2)ccn1 [Example 18.2, (2S)-2-((1H-1,2,3-triazol-4-yl)methylamino)-3-(4-fluorophenyl)-N-(3-(2-(methylamino)pyridin-4-yl)-1H-pyrazol-5-yl)propanamide]
EC50: < 0.05 µM

O=C(Nc1cccc(-c2ccncc2)c1)[C@H](Cc1ccccc1)NCCC1CCOCC1 [Example 34.1, (S)-3-Phenyl-N-(3-(pyridin-4-yl)phenyl)-2-(2-(tetrahydro-2H-pyran-4-yl)ethylamino)propanamide]
EC50: 0.1 to 1 µM

COc1ncc(-c2ccn(C)n2)cc1NC(=O)[C@H](Cc1ccccc1)NC1(c2ccccn2)CC1 [Example 19.1]
EC50: 0.1 to 1 µM

CNc1cc(-c2cc(NC(=O)[C@H](Cc3ccccc3)NCc3ccc(F)cn3)n(C)n2)ccn1 [Example 23.1, (2S)-2-((5-Fluoropyridin-2-yl)methylamino)-N-(1-methyl-3-(2-(methylamino)pyridin-4-yl)-1H-pyrazol-5-yl)-3-phenylpropanamide]
EC50: < 0.05 µM

O=C([C@H](Cc1ccccc1)NCc1cscn1)N1CCc2ccc(-c3ccc(F)cc3)cc21 [Example 85, (S)-1-[6-(4-Fluoro-phenyl)-2,3-dihydro-indol-1-yl]-3-phenyl-2-[(thiazol-4-ylmethyl)-amino]-propan-1-one Trifluoroacetate]
EC50: 0.1 to 1 µM

Cc1nnc(-c2cc(-c3ccncc3)cc3c2CCN3C(=O)[C@H](Cc2ccccc2)NCc2cscn2)o1 [Example 67, (2S)-1-(4-(5-Methyl-1,3,4-oxadiazol-2-yl)-6-(pyridin-4-yl)indolin-1-yl)-3-phenyl-2-(thiazol-4-ylmethylamino)propan-1-one]
EC50: 0.05 to 0.1 µM

COC(=O)c1cc(-c2ccncc2)cc2c1CCN2C(=O)[C@H](Cc1ccccc1)NCc1cc[nH]n1 [Example 54.4, (S)-Methyl 1-(2-((1H-pyrazol-3-yl)methylamino)-3-phenylpropanoyl)-6-(pyridin-4-yl)indoline-4-carboxylate]
EC50: 0.05 to 0.1 µM

Cc1cc(-c2cc(NC(=O)[C@H](Cc3ccc(F)cc3)NCc3cscn3)n(C)n2)ccn1 [Example 16.1, (2S)-3-(4-Fluorophenyl)-N-(1-methyl-3-(2-methylpyridin-4-yl)-1H-pyrazol-5-yl)-2-(thiazol-4-ylmethylamino)propanamide]
EC50: < 0.05 µM

O=C(Nc1nccc(-c2ccncc2)n1)[C@H](Cc1ccccc1)NCc1cscn1 [Example 10, (S)-3-phenyl-N-(4-(pyridin-4-yl)pyrimidin-2-yl)-2-(thiazol-4-ylmethylamino)propanamide]
EC50: 0.1 to 1 µM

CCn1nc(-c2ccnc(C)c2)cc1NC(=O)[C@H](Cc1ccc(F)cc1)NCc1cscn1 [Example 28, (2S)—N-(1-ethyl-3-(2-methylpyridin-4-yl)-1H-pyrazol-5-yl)-3-(4-fluorophenyl)-2-(thiazol-4-ylmethylamino)propanamide dihydrochloride]
EC50: < 0.05 µM

COc1ncc(-c2ccnc(C)c2)cc1NC(=O)[C@H](Cc1ccccc1)NCc1ccccn1 [Example 41.3, (2S)—N-(2-Methoxy-5-(2-methylpyridin-4-yl)pyridin-3-yl)-3-phenyl-2-(pyridin-2-ylmethylamino)propanamide]
EC50: 0.1 to 1 µM

COc1ccc(NC(=O)[C@H](Cc2ccccc2)NCc2cscn2)cc1-c1ccncc1 [Example 38, (S)—N-(4-Methoxy-3-(pyridin-4-yl)phenyl)-3-phenyl-2-(thiazol-4-ylmethylamino)propanamide]
EC50: 0.1 to 1 µM

Nc1cc(-c2cccc(NC(=O)[C@H](Cc3ccccc3)NCc3cscn3)c2)ccn1 [Example 36, (2S)—N-(3-(2-Aminopyridin-4-yl)phenyl)-3-phenyl-2-(thiazol-4-ylmethylamino)propanamide]
EC50: 0.1 to 1 µM

COc1ncc(-c2ccncc2)cc1NC(=O)[C@H](Cc1ccccc1)NC1(c2ncccn2)CC1 [Example 35.5, (S)—N-(2-Methoxy-5-(pyridin-4-yl)pyridin-3-yl)-3-phenyl-2-(1-(pyrimidin-2-yl)cyclopropylamino)propanamide]
EC50: 0.05 to 0.1 µM

O=C(Nc1cncc(-c2ccn[nH]2)c1)[C@H](Cc1ccccc1)NCc1cscn1 [Example 6, (2S)—N-(5-(1H-Pyrazol-5-yl)pyridin-3-yl)-3-phenyl-2-(thiazol-4-ylmethylamino)propanamide]
EC50: 0.1 to 1 µM

O=C(NCCN1CCNC1=O)c1cc(-c2ccncc2)cc2c1CCN2C(=O)[C@H](Cc1ccccc1)NCc1cscn1 [Example 81, (S)—N-(2-(2-Oxoimidazolidin-1-yl)ethyl)-1-(3-phenyl-2-(thiazol-4-ylmethylamino)propanoyl)-6-(pyridin-4-yl)indoline-4-carboxamide]
EC50: 0.1 to 1 µM

O=C(Nc1cc(-c2ccncc2)n[nH]1)[C@H](Cc1ccccc1)NCc1cscn1 [Example 7, (S)-3-Phenyl-N-(3-(pyridin-4-yl)-1H-pyrazol-5-yl)-2-(thiazol-4-ylmethylamino)propanamide]
EC50: 0.05 to 0.1 µM

O=C(Nc1csc(-c2ccncc2)n1)[C@H](Cc1ccccc1)NCc1cscn1 [Example 4, (S)-3-Phenyl-N-(2-(pyridin-4-yl)thiazol-4-yl)-2-(thiazol-4-ylmethylamino)propanamide]
EC50: 0.1 to 1 µM

O=C(O)c1cc(NC(=O)[C@H](Cc2ccccc2)NCc2cc[nH]n2)cc(-c2ccncc2)c1 [Example 45.5, (S)-3-(2-((1H-Pyrazol-3-yl)methylamino)-3-phenylpropanamido)-5-(pyridin-4-yl)benzoic acid]
EC50: 0.1 to 1 µM

COc1ncc(-c2ccncc2)cc1NC(=O)[C@H](Cc1ccccc1)NC1(c2ccccn2)CC1 [Example 11.1, (S)—N-(2-methoxy-5-(pyridin-4-yl)pyridin-3-yl)-3-phenyl-2-(1-(pyridin-2-yl)cyclopropylamino)propanamide]
EC50: < 0.05 µM

Cn1cc(-c2ccc3c(c2)N(C(=O)[C@@H](N)Cc2ccccc2)CC3)cn1 [Example 82, (2S)-2-Amino-1-(6-(1-methyl-1H-pyrazol-4-yl)indolin-1-yl)-3-phenylpropan-1-one hydrochloride]
EC50: 1 to 10 µM

O=C(NCC1CC1)c1cc(NC(=O)[C@H](Cc2ccccc2)NCc2cscn2)cc(-c2ccncc2)c1 [Example 70, (S)—N-(Cyclopropylmethyl)-3-(3-phenyl-2-(thiazol-4-ylmethylamino)propanamido)-5-(pyridin-4-yl)benzamide]
EC50: 0.05 to 0.1 µM

Cc1cc(-c2cc(NC(=O)[C@@H](N)Cc3ccc(F)cc3)n(C)n2)ccn1 [Example 16.1.F, (2S)-2-amino-3-(4-fluorophenyl)-N-(1-methyl-3-(2-methylpyridin-4-yl)-1H-pyrazol-5-yl)propanamide]
EC50: 0.1 to 1 µM

COc1ncc(-c2ccnc(C)c2)cc1NC(=O)[C@H](Cc1ccccc1)N[C@@H](C)c1ccccn1 [Example 41.2, (S)—N-(2-Methoxy-5-(2-methylpyridin-4-yl)pyridin-3-yl)-3-phenyl-2-((S)-1-(pyridin-2-yl)ethylamino)propanamide]
EC50: 0.1 to 1 µM

COC(=O)CNC(=O)c1cc(-c2ccncc2)cc2c1CCN2C(=O)[C@H](Cc1ccccc1)NCc1cscn1 [Example 77, (S)-Methyl 2-(1-(3-phenyl-2-(thiazol-4-ylmethylamino)propanoyl)-6-(pyridin-4-yl)indoline-4-carboxamido)acetate]
EC50: 0.1 to 1 µM

COc1ncc(-c2ccn(C)n2)cc1NC(=O)[C@H](Cc1ccccc1)NC1(c2cscn2)CC1 [Example 19.2]
EC50: 0.1 to 1 µM

Cn1cnnc1CN[C@@H](Cc1ccccc1)C(=O)Nc1cccc(-c2ccncc2)c1 [Example 34.20, (S)-2-((4-Methyl-4H-1,2,4-triazol-3-yl)methylamino)-3-phenyl-N-(3-(pyridin-4-yl)phenyl)propanamide]
EC50: 0.1 to 1 µM
